Reference: patent US11103526B2, “Methods for treatment using small molecule potassium-sparing diuretics and natriuretics” (University of Pittsburgh—Of the Commonwealth System of …, priority 2016, dated 2021)

What was measured:
anesthetized rats = assay: Acute cardiovascular and renal effects of an intravenous bolus in anesthetized rats (Example 1); assay type: in vivo, male Sprague-Dawley rats; conditions: 33.5 μmoles/kg intravenous bolus
Procedure: Animals. This study employed male Sprague-Dawley rats (Charles River; Wilmington, Mass.) that were approximately 16 weeks old. The Institutional Animal Care and Use Committee approved all procedures.
The rats were anesthetized with Inactin (90 mg/kg, i.p.) and placed on an isothermal pad, and body temperature was monitored with a rectal probe thermometer and maintained at 37° C. with a heat lamp. […] A PE-50 cannula was inserted into the jugular vein, and an infusion of 0.9% saline at 25 μl/min was initiated. A PE-10 tubing was placed in the left ureter for urine collection. […] The dose was selected based on preliminary experiments with 8-aminoguanosine. […] Each group of rats (n of at least 6) received only one treatment. Ten minutes after the test agents were administered, urine was collected for another 30 minutes (Period 2: […] into the protocol).
Statistics. Absolute values are presented as the mean±SEM. Fold-increases were calculated as follows: Period 3 value÷Period 1 value. Statistical analyses were performed using analysis of variance (ANOVA) followed by Fisher's Least Significant Difference (LSD) test if the overall effects or interactions in the ANOVA were significant. P<0.05 was considered statistically significant.

MCT-induced PH = assay: Monocrotaline (MCT)-induced pulmonary hypertension; assay type: in vivo, male Sprague Dawley rats; conditions: 30 mg/kg/day
Procedure: Because PNPase metabolizes guanosine to guanine, the mechanism by which PNPase activity is associated with PH likely includes guanosine protection against PH. A total of 24 male Sprague Dawley rats were used to determine whether administration of guanosine attenuates the development of PH in animals with MCT-induced PH. Animals were randomly assigned for intraperitoneal (i.p.) injection with either a mixture of 1 ml of 1N HCl neutralized with 1.0 N NaOH and diluted with distillated water (10 ml/kg, Control group; n=8) or MCT (60 mg/kg, […]). The MCT (Sigma, St Louis, Mo.) was dissolved in 1N HCl at 100 mg/ml, which was neutralized with 1 N NaOH and diluted with distillated water to 6 mg/ml. Next, a subset of MCT rats (n=8) were assigned to receive guanosine (30 mg/kg/day). The rats were randomly assigned to the Control, MCT, or MCT+guanosine group.
In this PH model, three weeks after MCT administration, mortality rapidly increases (Ren et al., J Pharmacol Exp Ther., 325:920-926, 2008; Seoane et al., Southern Medical Journal, 94:635-639, 2001). Therefore, animals were monitored for four weeks, and acute measurements of right ventricular pressure and morphometric analyses were performed. Twenty-eight days after administration of MCT, the animals were anesthetized and instrumented for right ventricular peak systolic pressure (RVPSP) measurement. Briefly, a PE-240 polyethylene catheter was inserted into the trachea to facilitate breathing. An angled Milliar Micro-tip pressure transducer catheter SPR-513 (Millar Instruments) was inserted into the right jugular vein and advanced into the right ventricle (RV) for RVPSP measurement. After 30-minutes of stabilization, RVPSP was recorded over 20 minutes. The animals were euthanized by anesthetic overdose, and the heart and lungs were collected for morphometric analyses.

[1] = system: RBCs from SCD patients (HbSS); assay: Hypoxia-induced sickling of RBCs from SCD patients; assay type: cell-based, human; conditions: 2 μmol/L; 1.5 hours pre-incubation, then hypoxia for 3 hours
Procedure: In addition to causing PH in SCD patients and HIV-infected patients, the contribution of PNPase to RBC sickling in SCD patients was assessed. Fresh RBCs were obtained from two adult SCD patients (HbSS); the RBCs were diluted in F-10 HAM buffer to a final hematocrit of 4%. Next, glucose was added for a final concentration of 5.5 mmol/L, and the samples were incubated at room air/temperature in 12-well plates. The RBCs were then treated with either vehicle, 8-aminoguanosine (2 μmol/L), inosine (2 μmol/L), or an 8-aminoguanosine and inosine combination. After 1.5 hours, the RBCs were placed in a hypoxic glove box and maintained under hypoxia (5% 02) for 3 hours, while undergoing mild agitation. At the end of incubation, to prevent reoxygenation-derived morphological changes, the RBCs were fixed under hypoxic conditions in the hypoxic glove box. The samples were assayed for percent sickling.

[2] = Period 3 compared with Period 1

Nc1nc2[nH]c([N+](=O)[O-])nc2c(=O)[nH]1 [8-nitroguanine, 8-Nitroguanine]
efficacy grouping (diuretic/natriuretic) (anesthetized rats): moderate efficacy | sodium excretion increase (anesthetized rats; [2]): 7.8 fold

NC(N)=NC(=O)c1nc(Cl)c(N)nc1N [amiloride, Amiloride, reference compound]
effect on heart rate (HR) (anesthetized rats): modestly decreased | effect on mean arterial blood pressure (MABP) (anesthetized rats): modestly decreased | effect on mesenteric blood flow (MBF) (anesthetized rats): modestly decreased | effect on renal blood flow (RBF) (anesthetized rats): modestly decreased | urine volume increase (anesthetized rats; Period 3 (85-115 min) compared with Period 1 (0-30 min)): 4.5 fold | potassium excretion decrease (anesthetized rats; [2]): 96.5% | sodium excretion increase (anesthetized rats; [2]): 13.6 fold | effect on glucose excretion (anesthetized rats; in words): did not change

Nc1nc2c(nc(O)n2[C@H]2C[C@H](O)[C@@H](CO)O2)c(=O)[nH]1 [8-hydroxy-2-deoxyguanosine]
efficacy grouping (diuretic/natriuretic) (anesthetized rats): little or no efficacy

Nc1nc2c(nc([N+](=O)[O-])n2[C@@H]2O[C@H](CO)[C@@H](O)[C@H]2O)c(=O)[nH]1 [8-nitroguanosine]
efficacy grouping (diuretic/natriuretic) (anesthetized rats): little or no efficacy

Nc1nc2c(nc(O)n2[C@@H]2O[C@H](CO)[C@@H](O)[C@H]2O)c(=O)[nH]1 [8-hydroxyguanosine, 8-Hydroxyguanosine]
efficacy grouping (diuretic/natriuretic) (anesthetized rats): moderate efficacy | sodium excretion increase (anesthetized rats; [2]): 7.1 fold

Nc1nc2c(ncn2[C@@H]2O[C@H](CO)[C@@H](O)[C@H]2O)c(=O)[nH]1 [guanosine, Guanosine]
efficacy grouping (diuretic/natriuretic) (anesthetized rats): little or no efficacy | RV dysfunction (RV EDP, contractility index) (MCT-induced PH; 28 days after MCT): prevented | RV hypertrophy (RV mass) (MCT-induced PH; 28 days after MCT): attenuated | inflammatory cell infiltration into the lungs (ED1+ cells) (MCT-induced PH; 28 days after MCT): reduced | pulmonary vascular remodeling (MCT-induced PH; 28 days after MCT): attenuated | pulmonary hypertension (RVPSP) (MCT-induced PH; 28 days after MCT 60 mg/kg): attenuated

Nc1nc2[nH]cnc2c(=O)[nH]1 [guanine, Guanine, reference compound]
efficacy grouping (diuretic/natriuretic) (anesthetized rats): moderate efficacy | sodium excretion increase (anesthetized rats; [2]): 9.4 fold

O=c1[nH]cnc2c1ncn2[C@@H]1O[C@H](CO)[C@@H](O)[C@H]1O [inosine, Inosine]
hypoxia-induced sickling of RBCs [1]: significantly reduced

Nc1nc2[nH]c(O)nc2c(=O)[nH]1 [8-hydroxyguanine, 8-Hydroxyguanine]
efficacy grouping (diuretic/natriuretic) (anesthetized rats): moderate efficacy | sodium excretion increase (anesthetized rats; [2]): 8.6 fold
